Consider twelve compounds from ChEMBL document CHEMBL5584209, “Novel amino- and hydroxy-functionalized 1,2,4-trioxanes and their antimalarial activity against multidrug-resistant Plasmodium yoelii nigeriensis in Swiss mice via intramuscular and oral route” (2024).

The subject of experiment [1] is Plasmodium yoelii nigeriensis. In words: Antimalarial activity against multi-drug resistant Plasmodium yoelii nigeriensis infected in swiss mouse model at 48 mg/kg, IM administered for 4 days and measured within 6 to 8 days. In kind it is functional, organism-based. The settings on record: time 6-8 day.
Experiment [2] relates to Plasmodium yoelii nigeriensis. As to the kind of experiment: Antimalarial activity against multi-drug resistant Plasmodium yoelii nigeriensis infected in swiss mouse model assessed as suppression of parasitemia at 96 mg/kg, po administered for 4 days relative to control. The settings on record: time 4 day. The experiment is classed as functional.
In experiment [3] the test system is Plasmodium yoelii nigeriensis. As to the kind of experiment: Antimalarial activity against multi-drug resistant Plasmodium yoelii nigeriensis infected in swiss mouse model at 96 mg/kg, po administered for 4 days and measured within 6 to 8 days. The following applies: time 6-8 day. In kind it is functional, organism-based.
Experiment [4] has as its system Plasmodium yoelii nigeriensis. As to the kind of experiment: Antimalarial activity against multi-drug resistant Plasmodium yoelii nigeriensis infected in swiss mouse model assessed as suppression of parasitemia at 96 mg/kg, IM administered for 4 days relative to control. In kind it is functional. The settings on record: time 4 day.
Experiment [5] relates to Plasmodium yoelii nigeriensis. As to the kind of experiment: Antimalarial activity against multi-drug resistant Plasmodium yoelii nigeriensis infected in swiss mouse model at 96 mg/kg, IM administered for 4 days and measured within 6 to 8 days. In kind it is functional, organism-based. The settings on record: time 6-8 day.
Experiment [6] has as its system Plasmodium yoelii nigeriensis. In words: Antimalarial activity against multi-drug resistant Plasmodium yoelii nigeriensis infected in swiss mouse model assessed as suppression of parasitemia at 48 mg/kg, IM administered for 4 days relative to control. The experiment is classed as functional. The following applies: time 4 day.
Experiment [7] relates to Plasmodium yoelii nigeriensis. In words: Antimalarial activity against multi-drug resistant Plasmodium yoelii nigeriensis infected in swiss mouse model assessed as suppression of parasitemia at 48 mg/kg, po administered for 4 days relative to control. The experiment is classed as functional. The settings on record: time 4 day.
The subject of experiment [8] is Plasmodium yoelii nigeriensis. As to the kind of experiment: Antimalarial activity against multi-drug resistant Plasmodium yoelii nigeriensis infected in swiss mouse model at 48 mg/kg, po administered for 4 days and measured within 6 to 8 days. The settings on record: time 6-8 day. In kind it is functional, organism-based.
The subject of experiment [9] is Plasmodium yoelii nigeriensis. In words: Antimalarial activity against multi-drug resistant Plasmodium yoelii nigeriensis infected in swiss mouse model assessed as suppression of parasitemia by measuring fold change at 48 mg/kg, po administered for 4 days relative to artemisinin. In kind it is functional. The following applies: time 4 day.
The subject of experiment [10] is Plasmodium yoelii nigeriensis. In words: Antimalarial activity against multi-drug resistant Plasmodium yoelii nigeriensis infected in swiss mouse model assessed as suppression of parasitemia at 24 mg/kg, po administered for 4 days relative to control. In kind it is functional. The settings on record: time 4 day.
The test system of experiment [11] is Plasmodium yoelii nigeriensis. As to the kind of experiment: Antimalarial activity against multi-drug resistant Plasmodium yoelii nigeriensis infected in swiss mouse model assessed as animal survival at 48 mg/kg, IM administered for 4 days and measured after 28 days. The experiment is classed as functional. The following applies: time 28 day.
Experiment [12] deals with Plasmodium yoelii nigeriensis. In words: Antimalarial activity against multi-drug resistant Plasmodium yoelii nigeriensis infected in swiss mouse model assessed as animal survival at 96 mg/kg, IM administered for 4 days and measured after 28 days. The experiment is classed as functional. The settings on record: time 28 day.
Experiment [13] relates to Plasmodium yoelii nigeriensis. As to the kind of experiment: Antimalarial activity against multi-drug resistant Plasmodium yoelii nigeriensis infected in swiss mouse model assessed as suppression of parasitemia at 24 mg/kg, IM administered for 4 days relative to control. The experiment is classed as functional. The following applies: time 4 day.
Experiment [14] concerns Plasmodium yoelii nigeriensis. In words: Antimalarial activity against multi-drug resistant Plasmodium yoelii nigeriensis infected in swiss mouse model assessed as animal survival at 96 mg/kg, po administered for 4 days and measured after 28 days. The settings on record: time 28 day. The experiment is classed as functional.

Calls of active or inactive are those of the source. No cut-off for these calls is given here.

For the compound `C=C(c1ccc(OC(C)(C)CO)cc1)C1COC2(OO1)C1CC3CC(C1)CC2C3` (stereo not drawn), the result in [1], in experiment [3] and in experiment [5] was Active. The Activity in [2], in experiment [4], in experiment [6] and in [7] was 100% in each case.
As to `C=C(c1ccc(OC(C)(C)CO)cc1)C1COC2(CCCCC2)OO1` (stereo not drawn), the Activity in experiment [2] was found to be 68%; in experiment [4], 100%. Besides, in [3], the result was inactive.
Turning to `C=C(c1ccc(OC(C)(C)CNc2ccccc2)cc1)C1COC2(OO1)C1CC3CC(C1)CC2C3` (stereo not drawn), the Activity in experiment [2], in experiment [7] and in experiment [10] was 100% in each case. Besides, the outcome in experiment [8] and in experiment [3] was Active. In [9], the “fold change (FC)” value is 2.
In the case of `C=C(c1ccc(OC(C)(C)CO)cc1)C1COC2(CCCC2)OO1` (stereo not drawn), the figures for the Activity in [2] and in [4] were 53% and 98%, respectively. The result in experiment [3] was inactive.
Consider `C=C(c1ccc(OC(C)(C)CNc2ccc(C)cc2)cc1)C1COC2(CCCCC2)OO1` (stereo not drawn), for which the Activity is on record as 100% in experiment [2] and 99% in [4].
Regarding `C=C(c1ccc(OC(C)(C)CO)cc1)C1COC2(CCC(=O)CC2)OO1` (stereo not drawn), the Activity amounted to 60% in experiment [2] and 53% in [4]. For the same compound, the outcome in experiment [3] and in [5] was inactive.
In the case of `C=C(c1ccc(OC(C)(C)CO)cc1)C1COC2(CCC(Nc3ccc(Br)cc3)CC2)OO1` (stereo not drawn), the outcome in experiment [1] and in [5] was Active. Besides, the Survival in experiment [11] and in [12] was greater than 28 days in each case. In addition, the Activity in experiment [2], in experiment [4] and in [6] was 100% each time. Also, in experiment [3], the outcome was inactive.
On to `C=C(c1ccc(OC(C)(C)CNc2ccc(F)cc2)cc1)C1COC2(OO1)C1CC3CC(C1)CC2C3` (stereo not drawn), for which the Activity in experiment [2], in experiment [7] and in experiment [10] was 100% in each case. Moreover, the outcome in experiment [8] and in [3] was Active. In addition, the “fold change (FC)” value in experiment [9] came to 2.
Turning to `C[C@@H]1CC[C@H]2[C@@H](C)C(=O)O[C@@H]3O[C@@]4(C)CC[C@@H]1[C@]32OO4` [ARTEMISININ], the Activity in experiment [13], in [2] and in [6] was 100% in each case. Also, in experiment [1], the result was Active. In experiment [3], the result was inactive.
On to `C=C(c1ccc(OC(C)(C)CNc2ccc(C(F)(F)F)cc2)cc1)C1COC2(CCCC2)OO1` (stereo not drawn), for which the Survival in [14] was greater than 28 days. In addition, the values for the Activity in experiment [2], in experiment [4] and in experiment [7] were 100%, 65% and 100%, respectively. Further, the result in experiment [3] was Active. In [5], the result was inactive.
With `C=C(c1ccc(OC(C)(C)CNc2cc(Cl)cc(Cl)c2)cc1)C1COC2(CCCC2)OO1` (stereo not drawn), the Survival in experiment [14] is greater than 28 days. Also, the Activity in experiment [2] and in experiment [7] was 100% in each case. Besides, in [3], the result was Active.
With `C=C(c1ccc(OC(C)(C)CNc2ccc(Br)cc2)cc1)C1COC2(CCCCC2)OO1` (stereo not drawn), the Survival in experiment [14] is greater than 28 days. For the same compound, the Activity in experiment [2] and in experiment [4] was 100% in each case. In experiment [3], the outcome was Active.
